Experimental data: paper PMC6271274, “Synthesis, Leishmanicidal Activity and Theoretical Evaluations of a Series of Substituted bis-2-Hydroxy-1,4-Naphthoquinones” (Molecules, 2014)
Where “and” joins values, the source holds several entries; their conditions need not be identical. Equal values may be shown once.

Experiments:
[1] = tested on: L. amazonensis promastigotes; test: In vitro activity against L. amazonensis promastigotes; type: cell-based; settings: Leishmania amazonensis, 48 h; for IC50: maximal concentration 100 μM; for Emax: up to 100 μM, read-out: Maximum Effect
Procedure: (§1) L. braziliensis promastigotes (MHOM/BR/87/BA788) were obtained from Dra. Valéria de Matos Borges at the Gonçalo Moniz Research Center, Fiocruz_BA. L. amazonensis promastigotes (MHOM/BR/77/LTB0016) were obtained from Dr. Eduardo Caio Torres dos Santos at the Oswaldo Cruz Institute-Fiocruz_RJ. The parasites were maintained in vitro in Schneider’s medium supplemented with 10% FBS and 2% human urine at 27 °C in BOD incubator.
(§2) The parasites were maintained in vitro in Schneider’s medium supplemented with 10% FBS and 2% human urine. Novel bis-lawsone analog stock solutions and pentamidine (reference leishmanicidal drug) were prepared in DMSO immediately before use. The cytotoxicities of the bis-lawsone analogs and pentamidine against the promastigotes were determined. Stationary phase L. braziliensis and L. amazonensis promastigotes were plated in 96-well vessels (Nunc, Roskilde, Denmark) at 1 × 10^5 cells per well in Schneider’s medium supplemented with 10% FBS and 2% human urine. Each compound solution was added at increasing concentrations (0.1–100 mg to the extract and its phases or 0.1–100 µΜ to the isolates and pentamidine). The cells were also cultured in a medium free of compounds, a vehicle (basal growth control) or with DMSO 0.1% (vehicle control). After 48 h, the extracellular load for L. braziliensis and L. amazonensis promastigotes was estimated by counting the promastigotes in Schneider’s medium using a CELM automatic cell counter (model CC530, Barueri, Brazil). The data obtained from experiments were expressed as the mean ± S.E.M., and the significant differences between the treated and vehicle groups were evaluated using ANOVA and Dunnett post-hoc tests.

[2] = Cytotoxicity against host cells (MTT assay); type: cell-based; settings: mouse, J774 macrophage cell line; J774 macrophages, MTT assay, 48 h, maximal concentration 100 μM; read-out: LC50
Procedure: (§3) The adherent-phenotype macrophage line was cultured in Dulbecco’s Modified Eagle’s medium (DMEM, Sigma, Dublin, Ireland) supplemented with 10% FBS at 37 °C, 95% humidity and 5% CO2.
(§4) To evaluate the cytotoxicity activity against the J774 cell line, the host cells were plated in 96-well vessels at 2 × 10^5 cells per well in a complete culture medium with 10% FBS at 37 °C. After 1 h, the wells were washed with HBSS to remove non-adherent cells, leaving approximately 1 × 10^5 adherent macrophages. The cells were cultured in DMEM complete medium supplemented with 10% FBS. The compounds and pentamidine were added at serial concentrations (0.1–100 µM). The cells were also cultured in media free from compounds, a vehicle (basal growth control) or media with DMSO 0.1% (vehicle control). The positive control (dead cells) was obtained through cellular lyses with 1% of Triton X-100 in DMEM complete medium. After 48 h, the cytotoxicity was evaluated using the MTT assay. The data obtained from the experiments were expressed as the mean ± S.E.M., and the significant differences between the treated and vehicle groups were evaluated using ANOVA and Dunnett post-hoc tests.

[3] = tested on: L. braziliensis promastigotes; test: In vitro activity against L. braziliensis promastigotes; type: cell-based, Leishmania braziliensis; settings: for IC50 / Emax: Leishmania braziliensis, L. braziliensis promastigotes, 48 h; for IC50: maximal concentration 100 μM; for Emax: NT = no significant inhibitory activity for the parasite to 100 M (printed) compared to DMSO group, read-out: Maximum Effect; for Selectivity: IC50 to L. braziliensis lower than IC50 to L. amazonensis: ratio of promastigote IC50 values
Procedure: as §1, §2

[4] = In vivo toxicity (spleen weight, plasma biochemistry) in infected BALB/c mice; settings: BALB/c mice infected with L. amazonensis, 30 μmol/kg/day × 28 days, i.p.
From the text: (§5) This study was approved (protocol no. 2013.02) by the Ethics Committee for Animal Experimentation of the Federal University of Alagoas (Brazil). All animals received humane care in compliance with the “Principles of laboratory animal care” formulated by the National Society for Medical Research and the “Guide for the care and use of laboratory animals” prepared by the National Academy of Sciences (Washington, DC, USA). Next, 1 × 10^5 stationary promastigotes (5 days of culture in Schneider’s medium) of L. amazonensis (MHOM/BR/77/LTB0016) were subcutaneously inoculated into the right ear dermis of 6-week-old female BALB/c mice weighing ca. 20 g. and were later intraperitoneally treated with 3a or glucantime at 30 μmol/kg × 28 days. The lesion size was measured using a paquimeter. The parasite loads of infected ears and draining lymph nodes were determined using a quantitative limiting-dilution assay. Complex toxicity was also evaluated through biochemistry dosages in plasma. The experimental data were expressed as the mean ± S.E.M., and the significant differences between the treated and vehicle groups were evaluated using ANOVA and Dunnett post-hoc tests.

J774 cell line = test: Cytotoxicity against host cells (MTT assay); type: cell-based; settings: for Effect on J774 cell line viability / cytotoxicity to the host cells (in words): 48 h of incubation, at 100 µM; for Maximum Cytotoxicity: J774 macrophages, MTT assay, 48 h, NT = no significant lethal activity to cell until 100 M (printed) compared to DMSO group
Procedure: as §3, §4

L. amazonensis [5] = test: In vivo activity against Leishmania amazonensis in infected BALB/c mice; settings: 30 μmol/kg/day × 28 days, i.p.; for Parasite load in the draining lymph node / Parasite load in the infected ear: limiting-dilution assay
From the text: as §5

L. amazonensis [6] = tested on: L. amazonensis; set-up: method as in PMID 15654435; settings: promastigotes; cited from earlier work
L. braziliensis = tested on: L. braziliensis; set-up: method as in PMID 15654435; settings: promastigotes; cited from earlier work
Leishmania = tested on: Leishmania; set-up: method as in PMID 15654435; settings: cited from earlier work
promastigote forms = settings: stated as reason for choice of reference drug; no reference given; cited from earlier work

Row | Compound | IC50 [1] [µM] | Emax [1] [%] | CC50 at 48 h [2] [µM] | IC50 [3] [µM] | Emax [3] [%] | other results
1 | O=C1C(O)=C(C(C2=C(O)C(=O)c3ccccc3C2=O)c2ccccc2)C(=O)c2ccccc21 [Compound 3d, 3,3'-(Phenylmethylene)-bis[2-hydroxy-1,4-naphthalenedione]] | 0.3 ± 0.1 | 85 ± 3.8 | > 100 | > 100 | – | Activity against promastigote forms of L. braziliensis (in words) ([3]; until 100 µM): did not present activity
2 | O=C1C(O)=C(CC2=C(O)C(=O)c3ccccc3C2=O)C(=O)c2ccccc21 [Compound 3a, 3,3'-(Methylene)-bis[2-hydroxy-1,4-naphthalenedione]] | 71 ± 1.1 | 72.8 ± 1 | > 100 | 0.9 ± 0.08 | 88.4 ± 0.9 | Alanine aminotransferase (ALT) in plasma [4]: nor altered; Aspartate aminotransferase (AST) in plasma [4]: nor altered; Spleen weight ([4]; last day of treatment): neither induced a change; Effect on J774 cell line viability / cytotoxicity to the host cells (in words) (J774 cell line): without cytotoxicity; Parasite load in the draining lymph node (L. amazonensis [5]): did not decrease; Parasite load in the infected ear (L. amazonensis [5]): did not decrease; Lesion size for the infected ear (L. amazonensis [5]; third week after the treatment began): decreased; Selectivity: IC50 to L. braziliensis lower than IC50 to L. amazonensis [3]: 10 times
3 | O=C1C(O)=C(C(C2=C(O)C(=O)c3ccccc3C2=O)c2ccc([N+](=O)[O-])cc2)C(=O)c2ccccc21 [Compound 3g, 3,3'-(4-Nitrophenylmethylene)-bis[2-hydroxy-1,4-naphthalenedione]] | 7.7 ± 1.2 | 55.6 ± 3.2 | > 100 | 2.8 ± 0.1 | 91.7 ± 1.3 | –
4 | CCCCCC(C1=C(O)C(=O)c2ccccc2C1=O)C1=C(O)C(=O)c2ccccc2C1=O [Compound 3b, 3,3'-(Hexylidene)-bis[2-hydroxy-1,4-naphthalenedione]] | 5.2 ± 0.1 | 57.2 ± 3.8 | > 100 | 5.2 ± 0.1 | 93 ± 0.1 | Effect on J774 cell line viability / cytotoxicity to the host cells (in words) (J774 cell line): without cytotoxicity
5 | CC(=O)OC1=C(C=CC(C)C)C(=O)c2ccccc2C1=O [isolapachol acetate] | – | – | – | – | – | IC50 (L. amazonensis [6]): 1.6 µg/mL; IC50 (L. braziliensis): 3.4 µg/mL
6 | O=C1C(O)=C(C(C2=C(O)C(=O)c3ccccc3C2=O)c2ccc(O)cc2)C(=O)c2ccccc21 [Compound 3f, 3,3'-(4-Hydroxyphenylmethylene)-bis[2-hydroxy-1,4-naphthalenedione]] | 68.7 ± 15.1 | 55.4 ± 4.7 | > 100 | 38.7 ± 2 | 91.7 ± 0.3 | –
7 | CC(C)CCC1=C(O)C(=O)c2ccccc2C1=O [dihydrolapachol] | – | – | – | – | – | Antileishmanial activity (in words) (Leishmania): significant activity
8 | isolapachol | – | – | – | – | – | Antileishmanial activity (in words) (Leishmania): significant activity
9 | meglumine antimoniate [glucantime, reference compound] | – | – | – | – | – | Parasite load in the draining lymph node (L. amazonensis [5]): did not decrease; Parasite load in the infected ear (L. amazonensis [5]): did not decrease; Activity against promastigote forms (in words) (promastigote forms): not active
10 | O=C1C(O)=C(C(C2=C(O)C(=O)c3ccccc3C2=O)c2ccc(F)cc2)C(=O)c2ccccc21 [Compound 3h, 3,3'-(4-Fluorophenylmethylene)-bis[2-hydroxy-1,4-naphthalenedione]] | 0.6 ± 0.2 | 51 ± 5.5 | > 100 | 0.8 ± 0.03 | 88.7 ± 0.3 | Effect on J774 cell line viability / cytotoxicity to the host cells (in words) (J774 cell line): without cytotoxicity
11 | CC(C)=CCC1=C(O)C(=O)c2ccccc2C1=O [Lapachol] | – | – | – | – | – | Antileishmanial activity (in words) (Leishmania): significant activity
12 | CCC(CC)C(C1=C(O)C(=O)c2ccccc2C1=O)C1=C(O)C(=O)c2ccccc2C1=O [Compound 3c, 3,3'-(2-Ethylbutylidene)-bis[2-hydroxy-1,4-naphthalenedione]] | 0.4 ± 0.1 | 75.3 ± 1.3 | 67.4 ± 2.1 | 34.7 ± 4.3 | 90.4 ± 0.7 | Maximum Cytotoxicity (J774 cell line): 71.7% ± 3.8% and 71.7 ± 3.8 %
13 | COc1ccc(C(C2=C(O)C(=O)c3ccccc3C2=O)C2=C(O)C(=O)c3ccccc3C2=O)cc1 [Compound 3e, 3,3'-(4-Methoxyphenylmethylene)-bis[2-hydroxy-1,4-naphthalenedione]] | > 100 | 44.6 ± 2.4 | > 100 | 0.9 ± 0.04 | 61.6 ± 7.5 | Effect on J774 cell line viability / cytotoxicity to the host cells (in words) (J774 cell line): without cytotoxicity; Selectivity: IC50 to L. braziliensis lower than IC50 to L. amazonensis [3]: 10 times
14 | N=C(N)c1ccc(OCCCCCOc2ccc(C(=N)N)cc2)cc1 [Pentamidine, reference compound] | 2.3 ± 0.8 | 85.4 ± 0.4 | 73 ± 6 | 0.8 ± 0.06 | 91 ± 0.1 | Maximum Cytotoxicity (J774 cell line): 78.0 ± 3.8 %; Maximum Cytotoxicity (J774 cell line; listed as pentamidine): 78.0% ± 3.8%
